How the values were obtained:
HCV replicon genotype 1a = assay: microbe, parasite or virus in culture; assay type: cell-based, hepatitis C virus (HCV); conditions: Hepatitis C virus, 96 h, read-out: 1a IC50 (nM)
HCV replicon genotype 1b = assay: microbe, parasite or virus in culture; assay type: cell-based, hepatitis C virus (HCV); conditions: Hepatitis C virus, 96 h, read-out: 1b IC50 (nM)

| Structure (SMILES) | IC50 (HCV replicon genotype 1a) [nM] | IC50 (HCV replicon genotype 1b) [nM] |
| --- | --- | --- |
| CNC(=O)c1c(-c2ccc(F)cc2)oc2ccc(-c3ccc4c(n3)C(=O)N(Cc3ccc(F)cc3)CO4)cc12 [Compound 34, 5-(3-(4-fluorobenzyl)-4-oxo-3,4-dihydro-2H-pyrido[2,3-e][1,3]oxazin-6-yl)-2-(4-fluorophenyl)-N-methylbenzofuran-3-carboxamide] | 8930 | 10400 |
| CNC(=O)c1c(-c2ccc(F)cc2)oc2cc(N(C)S(C)(=O)=O)c(-c3cnc4ncn(-c5ccc(F)cc5)c(=O)c4c3)cc12 [Compound 22] | 16.2 | 4.12 |
| CNC(=O)c1c(-c2ccc(F)cc2)oc2cc(N(C)S(C)(=O)=O)c(-c3ccc4nnn(Cc5ccc(F)cc5OC)c(=O)c4c3)cc12 [Compound 47, 5-[3-(4-fluoro-2-methoxybenzyl)-4-oxo-3,4-dihydro-1,2,3-benzotriazin-6-yl]-2-(4-fluorophenyl)-N-methyl-6-[methyl(methylsulfonyl)amino]-1-benzofuran-3-carboxamide] | 20.2 | 20.6 |
| CNC(=O)c1c(-c2ccc(F)cc2)oc2cc(N(C)S(C)(=O)=O)c(-c3ccc4c(n3)C(=O)N(c3cccc(F)c3)CO4)cc12 [Compound 3] | 4.83 | 2.84 |
| CNC(=O)c1c(-c2ccc(F)cc2)oc2ccc(-c3ccc4c(n3)C(=O)N(Cc3ccc(F)cc3)CC4)cc12 [Compound 37, 5-(7-(4-fluorobenzyl)-8-oxo-5,6,7,8-tetrahydro-1,7-naphthyridin-2-yl)-2-(4-fluorophenyl)-N-methylbenzofuran-3-carboxamide] | 77.3 | 11.4 |
| CNC(=O)c1c(-c2ccc(F)cc2)oc2cc(N(C)S(C)(=O)=O)c(-c3cc4c(=O)n(Cc5ccc(F)cc5)nnc4cc3F)cc12 [Compound 70, 5-(7-fluoro-3-(4-fluorobenzyl)-4-oxo-3,4-dihydrobenzo[d][1,2,3]triazin-6-yl)-2-(4-fluorophenyl)-N-methyl-6-(N-methylmethylsulfonamido)benzofuran-3-carboxamide] | 11.3 | 2.61 |
| CNC(=O)c1c(-c2ccc(F)cc2)oc2cc(N(C)S(C)(=O)=O)c(-c3ccc4c(n3)C(=O)N(Cc3ccc(F)cn3)CO4)cc12 [Compound 11, 2-(4-fluorophenyl)-5-(3-((5-fluoropyridin-2-yl)methyl)-4-oxo-3,4-dihydro-2H-pyrido[2,3-e][1,3]oxazin-6-yl)-N-methyl-6-(N-methylmethylsulfonamido)benzofuran-3-carboxamide] | 15.3 | 7.68 |

Reference: patent publication US9364482B2, “Substituted benzofuran compounds and methods of use thereof for the treatment of viral diseases” (priority 2013, dated 2016)
